One data set addresses α-chymotrypsin (Bos taurus, UniProt P00766). The data set can be described thus: Proteolysis assay with chymotrypsin, RP-HPLC. Conditions: chymotrypsin 0.1 μg/ml, peptide 1 mg/ml, PBS with 0.01% sodium azide, 37°C. Type of data set: in vitro ADME. Here is the method: Aliquots were drawn at various time points and analyzed by high pressure liquid chromatography (HPLC, Shimadzu). Degradation mixtures were resolved on a C18 column (Phenomenix) using acetonitrile/water with 0.1% trifluroacetic acid (TFA) as a solvent system at a flow rate of 0.4 ml/minute. Analogs un-cleaved in the reaction mixture were quantified in terms of percent peak area. […] Aliquots were drawn and analyzed on a polyacrylamide gel (15%).

In data set [1] the test system is experimental autoimmune encephalomyelitis in SJL/J mice. Briefly: EAE prevention (pre-treatment) setup in SJL/J mice. Type of data set: in vivo, mouse. Conditions: prevention: 400 μg in IFA a week prior to immunization with MBP(85–99). Here is the method: EAE was induced and assessed as described previously. SJL/J (female; 6–8 week old) were injected subcutaneously with 100 μg of MBP(85–99) (two immunizations spaced a week apart) emulsified in complete Freund's adjuvant (CFA). Immunized mice were also given an intra-peritoneal injection of pertussis toxin (200 ng) on day 0 and 2. Severity of clinical disability was scored on a scale of 0 to 5, where, 0, no detectable signs of EAE; 1, complete tail paralysis; 2, wobbly gait; 3, complete hind limb paralysis; 4, complete hind and fore limb paralysis or moribund; 5, dead.

For data set [2] the test system is unchanged. The data set can be described thus: EAE treatment setup in SJL/J mice. Format: in vivo, mouse. The note with it: treatment: 100 μg subcutaneously daily for a week.
Procedure: Animals were perfused intra-cardially with ice cold PBS and 4% paraformaldehyde (PFA) sequentially under deep anesthesia. Thereafter intact spinal cord tissue was dissected out, equilibrated with 30% sucrose and embedded in tissue freezing media (Polyfreez, Polysciences). Subsequently, transverse sections (15 μM thick) were cut through lumbar region in a cryotome (Thermo) and collected in storage buffer (30% glycerol and ethylene glycol in PBS). Sections were retrieved from storage buffer, transferred into citrate buffer (10 mM, pH 6.0) and incubated at 65°C for 30 minutes for antigen retrieval. After 30 minute incubation period, sections were equilibrated with PBS and blocked using 3% bovine serum albumin and 1% normal serum for 2 hours at room temperature. […]
The test system of a further data set is RRMS. The note with it: cited from earlier work. The text has this:
However, therapeutic potencies of such antigen-specific modalities has always been moderate due to their peptidic nature e.g. in the case of GA it is only 20–30 percent. Expectedly, it is their minimal stability in proteolytic milieu and thus inefficient presentation on antigen presenting cells (APCs) which perhaps gets translated into their reduced efficacy.

Where a SMILES comes first, the peptide text is derived from it. [ ]: non-standard residue; d: D form. ξ: configuration not given here. ξβ3hE = NC(CCC(=O)O)CC(=O)O; ξβ3hK = NCCCCC(N)CC(=O)O; ξβ3hA = CC(N)CC(=O)O Bounds are passed on as bounds.

Regarding `CC(C)[C@H](NC(=O)[C@H](CCCCN)NC(=O)[C@@H]1CCCN1C(=O)[C@H](CCCCN)NC(=O)[C@@H](N)CCC(=O)O)C(=O)N[C@@H](CCC(=O)O)C(=O)N[C@@H](C)C(=O)N[C@@H](Cc1ccc(O)cc1)C(=O)N[C@@H](CCCCN)C(=O)N[C@@H](C)C(=O)N[C@@H](C)C(=O)N[C@@H](C)C(=O)N[C@@H](C)C(=O)N1CCC[C@H]1C(=O)N[C@@H](C)C(=O)O` [J5], the percent hydrolyzed at α-chymotrypsin (in 6 hours, RP-HPLC percent peak area) was over 50%.
In the case of `CC(CC(=O)O)NC(=O)CC(C)NC(=O)CC(C)NC(=O)CC(C)NC(=O)CC(CCCCN)NC(=O)[C@H](Cc1ccc(O)cc1)NC(=O)[C@H](C)NC(=O)[C@H](CCC(=O)O)NC(=O)[C@@H](NC(=O)[C@H](CCCCN)NC(=O)[C@@H]1CCCN1C(=O)CC(CCCCN)NC(=O)CC(N)CCC(=O)O)C(C)C` (stereo partly drawn) [S18] (H-[ξβ3hE][ξβ3hK]PKVEAY[ξβ3hK][ξβ3hA][ξβ3hA][ξβ3hA][ξβ3hA]-OH), at α-chymotrypsin (RP-HPLC), the “time up to which detectable in the reaction mixture” value is given as at most 2 days. In addition, the “percent remaining intact in reaction mixture” value on α-chymotrypsin (after 12 hours, RP-HPLC percent peak area, n ≥ 3) is reported as over 90%.
Turning to glatiramer acetate [GA], the “reduction of disease severity (cumulative disability score)” value is given as 40–50% in data set [1] and 30–35% in data set [2]. Also, the “duration of therapeutic effect post-treatment” value in data set [2] is ~ 1.7 weeks. The therapeutic potency with RRMS is on record as 20–30%.

These data come from article PMC4314633, “Homo-β-amino acid containing MBP(85–99) analogs alleviate experimental autoimmune encephalomyelitis” (Scientific Reports, 2015).
